Measurements as given in patent US6841519B1, “Isoxazoline derivatives and herbicides containing the same as the active ingredient” (Kumiai Chemical Industry Co., Ltd., priority 1999, dated 2005).

Tests used:
Assay type in all cases: in vivo
[1] = system: Echinochloa oryzicola Vasing. (Eo); test: Test for herbicidal effect by paddy field soil treatment (Test Example 1); conditions: application amount (active ingredient) 100 g/10 a, examined at the 21st day from the treatment, index per Table 40
Method: <Test Example 1> Test For Herbicidal Effect By Paddy Field Soil Treatment A paddy field soil was filled in a plastic pot of 100 cm^2 and subjected to puddling. Then, seeds of Echinochloa oryzicola Vasing. (Eo) were sowed and water was filled in a depth of 3 cm. Next day, wettable powders produced in accordance with the Formulation 1 were diluted with water and dropped on the water surface. The application amount of each wettable powder was 100 g per 10 ares in terms of the active ingredient. Then, breeding was made in a greenhouse, and the herbicidal effect of each wettable powder was examined at the 21st day from the treatment in accordance with the standard shown in Table 40. [table]

[2] = system: Echinochloa crus-galli (L.) Beauv. var. crusgall (Ec); test: Test for herbicidal effect by upland field soil treatment (Test Example 2), Ec
Method: (§1) [table] <Test Example 2> Test For Herbicidal Effect By Upland Field Soil Treatment An upland field soil was filed in a plastic pot of 80 cm^2. Seeds of Echinochloa crus-galli (L.) Beauv. var. crusgall (Ec) and Setaria viridis (L.) Beauv. (Se) were sowed, followed by covering with the same soil. Wettable powders produced in accordance with the Formulation 1 were diluted with water and sprayed uniformly: on the soil surface using a small sprayer, in an amount of 100 liters per 10 ares so that the amount of each active ingredient became 100 g per 10 ares. Then, breeding was made in a greenhouse, and the herbicidal effect of each wettable powder was examined at the 21st day from the treatment in accordance with the standard shown in Table 40.

[3] = system: Setaria viridis (L.) Beauv. (Se); test: Test for herbicidal effect by upland field soil treatment (Test Example 2), Se
Method: as §1

[4] = system: Echinochloa crus-galli (L.) Beauv. var. crusgalli (Ec); test: Test for herbicidal effect by upland foliage treatment (Test Example 3); conditions: 100 g/10 a active ingredient, examined at 14th day
Method: Test For Herbicidal Effect By Upland Foliage Treatment
An upland field soil was filed in a plastic pot of 80 cm^2. Seeds of Echinochloa crus-galli (L.) Beauv. var. crusgalli (Ec) were sowed. Breeding was made in a greenhouse for 2 weeks. Wettable powders produced in accordance with the Formulation 1 were diluted with water and sprayed on the whole foliage of plants from above the plants using a small sprayer in an amount of 100 liters per 10 ares so that the amount of each active ingredient became 100 g per 10 ares. Then, breeding was made in the greenhouse, and the herbicidal effect of each wettable powder was examined at the 14th day from the treatment in accordance with the standard shown in Table 40.

[5] = application amount (active ingredient) 100 g/10 a, examined at the 21st day from the treatment, index per Table 40
[6] = 100 g/10 a active ingredient, examined at 21st day

| Compound | Herbicidal effect to Eo [1] | Herbicidal effect to Ec [2, 5] | Herbicidal effect to Se [3, 5] | Herbicidal effect to Ec [4] | Herbicidal effect to Ec [2, 6] | Herbicidal effect to Se [3, 6] |
| --- | --- | --- | --- | --- | --- | --- |
| CC1(C)CC(S(=O)(=O)Cc2ccccc2)=NO1 [Compound 1-1] | 5 (A herbicidal effect or phytotoxicity of 90% or more) | 5 (A herbicidal effect or phytotoxicity of 90% or more) | 5 (A herbicidal effect or phytotoxicity of 90% or more) | 5 (A herbicidal effect or phytotoxicity of 90% or more) |  |  |
| CCOc1cccc(OCC)c1CS(=O)(=O)C1=NOC(C)(C)C1 [Compound 1-536] | 5 (A herbicidal effect or phytotoxicity of 90% or more) |  |  | 4 (A herbicidal effect or phytotoxicity of 70% to less than 90%) | 5 (A herbicidal effect or phytotoxicity of 90% or more) | 5 (A herbicidal effect or phytotoxicity of 90% or more) |
| C#CCOc1cccc(C)c1CS(=O)(=O)C1=NOC(C)(C)C1 [Compound 1-607] | 5 (A herbicidal effect or phytotoxicity of 90% or more) |  |  | 5 (A herbicidal effect or phytotoxicity of 90% or more) | 5 (A herbicidal effect or phytotoxicity of 90% or more) | 5 (A herbicidal effect or phytotoxicity of 90% or more) |
| Cc1ccc(C)c(CS(=O)(=O)C2=NOC(C)(C)C2)c1 [Compound 1-512] | 5 (A herbicidal effect or phytotoxicity of 90% or more) |  |  | 5 (A herbicidal effect or phytotoxicity of 90% or more) | 5 (A herbicidal effect or phytotoxicity of 90% or more) | 5 (A herbicidal effect or phytotoxicity of 90% or more) |
| Cc1cccc(CS(=O)(=O)C2=NOC(C)(C)C2)c1C [Compound 1-522] | 5 (A herbicidal effect or phytotoxicity of 90% or more) |  |  | 5 (A herbicidal effect or phytotoxicity of 90% or more) | 5 (A herbicidal effect or phytotoxicity of 90% or more) | 5 (A herbicidal effect or phytotoxicity of 90% or more) |
| CC1(C)CC(S(=O)(=O)Cc2c(F)cccc2C(F)(F)F)=NO1 [Compound 1-527] | 5 (A herbicidal effect or phytotoxicity of 90% or more) |  |  | 5 (A herbicidal effect or phytotoxicity of 90% or more) | 5 (A herbicidal effect or phytotoxicity of 90% or more) | 5 (A herbicidal effect or phytotoxicity of 90% or more) |
| CC1(C)CC(S(=O)(=O)Cc2c(Cl)cccc2Cl)=NO1 [Compound 1-490] | 5 (A herbicidal effect or phytotoxicity of 90% or more) | 5 (A herbicidal effect or phytotoxicity of 90% or more) | 4 (A herbicidal effect or phytotoxicity of 70% to less than 90%) | 4 (A herbicidal effect or phytotoxicity of 70% to less than 90%) |  |  |
| CCc1cccc(CC)c1CS(=O)(=O)C1=NOC(C)(C)C1 [Compound 1-502] | 5 (A herbicidal effect or phytotoxicity of 90% or more) |  |  | 5 (A herbicidal effect or phytotoxicity of 90% or more) | 5 (A herbicidal effect or phytotoxicity of 90% or more) | 5 (A herbicidal effect or phytotoxicity of 90% or more) |
| CC1(C)CC(S(=O)(=O)Cc2cccc(Cl)c2Cl)=NO1 [Compound 1-487] | 5 (A herbicidal effect or phytotoxicity of 90% or more) | 5 (A herbicidal effect or phytotoxicity of 90% or more) | 5 (A herbicidal effect or phytotoxicity of 90% or more) | 4 (A herbicidal effect or phytotoxicity of 70% to less than 90%) |  |  |
| COc1cc(CS(=O)(=O)C2=NOC(C)(C)C2)cc(OC)c1 [Compound 1-524] | 5 (A herbicidal effect or phytotoxicity of 90% or more) |  |  | 5 (A herbicidal effect or phytotoxicity of 90% or more) | 5 (A herbicidal effect or phytotoxicity of 90% or more) | 5 (A herbicidal effect or phytotoxicity of 90% or more) |
| O=S(=O)(Cc1c(F)cccc1F)C1=NOC2(CC2)C1 [Compound 1-380] | 5 (A herbicidal effect or phytotoxicity of 90% or more) | 5 (A herbicidal effect or phytotoxicity of 90% or more) | 4 (A herbicidal effect or phytotoxicity of 70% to less than 90%) | 4 (A herbicidal effect or phytotoxicity of 70% to less than 90%) |  |  |
| Cc1cc(C)c(CS(=O)(=O)C2=NOC(C)(C)C2)c(C)c1 [Compound 1-529] | 5 (A herbicidal effect or phytotoxicity of 90% or more) |  |  | 5 (A herbicidal effect or phytotoxicity of 90% or more) | 5 (A herbicidal effect or phytotoxicity of 90% or more) | 5 (A herbicidal effect or phytotoxicity of 90% or more) |
| CCOc1cccc(C(F)(F)F)c1CS(=O)(=O)C1=NOC(C)(C)C1 [Compound 1-585] | 5 (A herbicidal effect or phytotoxicity of 90% or more) |  |  | 5 (A herbicidal effect or phytotoxicity of 90% or more) | 5 (A herbicidal effect or phytotoxicity of 90% or more) | 5 (A herbicidal effect or phytotoxicity of 90% or more) |
| CCC1(C)CC(S(=O)(=O)Cc2c(F)cccc2F)=NO1 (stereo not drawn) [Compound 1-200, 5-ethyl-3-(2,6-difluorobenzylsulfonyl)-5-methyl-2-isoxazoline] | 5 (A herbicidal effect or phytotoxicity of 90% or more) | 5 (A herbicidal effect or phytotoxicity of 90% or more) | 5 (A herbicidal effect or phytotoxicity of 90% or more) | 4 (A herbicidal effect or phytotoxicity of 70% to less than 90%) |  |  |
| C=CCOc1cccc(C)c1CS(=O)(=O)C1=NOC(C)(C)C1 [Compound 1-606] | 5 (A herbicidal effect or phytotoxicity of 90% or more) |  |  | 4 (A herbicidal effect or phytotoxicity of 70% to less than 90%) | 5 (A herbicidal effect or phytotoxicity of 90% or more) | 5 (A herbicidal effect or phytotoxicity of 90% or more) |
| CC1(C)CC(S(=O)(=O)Cc2ccccc2F)=NO1 [Compound 1-32] | 5 (A herbicidal effect or phytotoxicity of 90% or more) | 5 (A herbicidal effect or phytotoxicity of 90% or more) | 5 (A herbicidal effect or phytotoxicity of 90% or more) | 5 (A herbicidal effect or phytotoxicity of 90% or more) |  |  |
| CCOc1cccc(C)c1CS(=O)(=O)C1=NOC(C)(C)C1 [Compound 1-602] | 5 (A herbicidal effect or phytotoxicity of 90% or more) |  |  | 4 (A herbicidal effect or phytotoxicity of 70% to less than 90%) | 5 (A herbicidal effect or phytotoxicity of 90% or more) | 5 (A herbicidal effect or phytotoxicity of 90% or more) |
| CCOc1ccccc1CS(=O)(=O)C1=NOC(C)(C)C1 [Compound 1-43] | 5 (A herbicidal effect or phytotoxicity of 90% or more) | 5 (A herbicidal effect or phytotoxicity of 90% or more) | 5 (A herbicidal effect or phytotoxicity of 90% or more) | 5 (A herbicidal effect or phytotoxicity of 90% or more) |  |  |
| CCCc1cccc(F)c1CS(=O)(=O)C1=NOC(C)(C)C1 [Compound 1-553] | 5 (A herbicidal effect or phytotoxicity of 90% or more) |  |  | 5 (A herbicidal effect or phytotoxicity of 90% or more) | 5 (A herbicidal effect or phytotoxicity of 90% or more) | 5 (A herbicidal effect or phytotoxicity of 90% or more) |
| CC(C)Oc1cccc(Cl)c1CS(=O)(=O)C1=NOC(C)(C)C1 [Compound 1-566] | 5 (A herbicidal effect or phytotoxicity of 90% or more) |  |  | 4 (A herbicidal effect or phytotoxicity of 70% to less than 90%) | 5 (A herbicidal effect or phytotoxicity of 90% or more) | 5 (A herbicidal effect or phytotoxicity of 90% or more) |
| CCOc1c(C)cccc1CS(=O)(=O)C1=NOC(C)(C)C1 [Compound 1-186] | 5 (A herbicidal effect or phytotoxicity of 90% or more) | 5 (A herbicidal effect or phytotoxicity of 90% or more) | 5 (A herbicidal effect or phytotoxicity of 90% or more) | 5 (A herbicidal effect or phytotoxicity of 90% or more) |  |  |
